Assay results taken from patent US6613718B2, “Aryl ether derivatives and processes for their preparation and herbicidal and desiccant compositions containing them” (Ishihara Sangyo Kaisha, Ltd., priority 2001, dated 2003).

Tests used:
Type in all cases: in vivo
Conditions in all cases: 14 days after application
[1] = test system: barnyardgrass (Echinochloa crus-galli, ECHCG); experiment: Pre-emerge greenhouse herbicide activity screening, phytotoxicity rating
Method in brief: (§1)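 For foliar (post-emergence) testing, 2-3 leaf seedlings were sprayed with acetone solutions including 0.25% v/v non-ionic surfactant, rates 15–1000 g ai/ha, then bottom-watered. Soil-applied (pre-emergence) tests used pots sown one day before spraying. Ratings, 0–100, were made at 14 days.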

[2] = test system: common ragweed (Ambrosia artemisiifolia L., AMBEL); experiment: as above
Method in brief: as §1

[3] = test system: green foxtail (Setaria viridis, SETVI); experiment: as above
Method in brief: as §1

[4] = test system: ivyleaf morningglory (Ipomoea hederacea, IPOHE); experiment: as above
Method in brief: as §1

[5] = test system: johnsongrass (Sorghum halepense, SORHA); experiment: as above
Method in brief: as §1

[6] = test system: lambsquarters (Chenopodium album, CHEAL); experiment: as above
Method in brief: as §1

[7] = test system: large crabgrass (Digitaria sanguinalis, DIGSA); experiment: as above
Method in brief: as §1

[8] = test system: redroot pigweed (Amaranthus retroflexus, AMARE); experiment: as above
Method in brief: as §1

[9] = test system: sicklepod (Cassia obtusifolia, CASOB); experiment: as above
Method in brief: as §1

[10] = test system: velvetleaf (Abutilon theophrasti, ABUTH); experiment: as above
Method in brief: as §1

[11] = test system: field corn (Zea mays L., var. Dekalb 535, CORN); experiment: Pre-emerge greenhouse screening, crop safety (phytotoxicity rating)
Method in brief: as §1

[12] = test system: soybean (Glycine max L., var. Pella 86, SOY); experiment: as above
Method in brief: as §1

[13] = test system: upland rice (Oryza sp., var.Tebonnet, RICE); experiment: as above
Method in brief: as §1

[14] = test system: barnyardgrass (Echinochloa crus-galli, ECHCG); experiment: Post-emerge greenhouse herbicide activity screening, phytotoxicity rating
Method in brief: as §1

[15] = test system: common ragweed (Ambrosia artemisiifolia L., AMBEL); experiment: as above
Method in brief: as §1

[16] = test system: green foxtail (Setaria viridis, SETVI); experiment: as above
Method in brief: as §1

[17] = test system: ivyleaf morningglory (Ipomoea hederacea, IPOHE); experiment: as above
Method in brief: as §1

[18] = test system: johnsongrass (Sorghum halepense, SORHA); experiment: as above
Method in brief: as §1

[19] = test system: lambsquarters (Chenopodium album, CHEAL); experiment: as above
Method in brief: as §1

[20] = test system: large crabgrass (Digitaria sanguinalis, DIGSA); experiment: as above
Method in brief: as §1

[21] = test system: redroot pigweed (Amaranthus retroflexus, AMARE); experiment: as above
Method in brief: as §1

[22] = test system: sicklepod (Cassia obtusifolia, CASOB); experiment: as above
Method in brief: as §1

[23] = test system: velvetleaf (Abutilon theophrasti, ABUTH); experiment: as above
Method in brief: as §1

[24] = test system: field corn (Zea mays L., var. Dekalb 535, CORN); experiment: Post-emerge greenhouse screening, crop safety / corn selectivity (phytotoxicity rating)
Method in brief: as §1

[25] = test system: soybean (Glycine max L., var. Pella 86, SOY); experiment: Post-emerge greenhouse screening, crop safety (phytotoxicity rating)
Method in brief: as §1

[26] = test system: upland rice (Oryza sp., var.Tebonnet, RICE); experiment: as above
Method in brief: as §1

## Cn1c(C(F)(F)F)cc(=O)n(-c2cc(Oc3ncccc3[N+](=O)[O-])c(Cl)cc2F)c1=S [Compound 1-9]
[1]; 125 g ai/ha
  ECHCG phytotoxicity rating (0-100 scale): 95
[1]; 250 g ai/ha
  ECHCG phytotoxicity rating (0-100 scale): 99
[2]; 125 g ai/ha
  AMBEL phytotoxicity rating (0-100 scale): 99
[2]; 250 g ai/ha
  AMBEL phytotoxicity rating (0-100 scale): 100
[3]; 125 g ai/ha
  SETVI phytotoxicity rating (0-100 scale): 100
[3]; 250 g ai/ha
  SETVI phytotoxicity rating (0-100 scale): 100
[4]; 125 g ai/ha
  IPOHE phytotoxicity rating (0-100 scale): 100
[4]; 250 g ai/ha
  IPOHE phytotoxicity rating (0-100 scale): 100
[5]; 125 g ai/ha
  SORHA phytotoxicity rating (0-100 scale): 95
[5]; 250 g ai/ha
  SORHA phytotoxicity rating (0-100 scale): 99
[6]; 125 g ai/ha
  CHEAL phytotoxicity rating (0-100 scale): 100
[6]; 250 g ai/ha
  CHEAL phytotoxicity rating (0-100 scale): 100
[7]; 125 g ai/ha
  DIGSA phytotoxicity rating (0-100 scale): 98
[7]; 250 g ai/ha
  DIGSA phytotoxicity rating (0-100 scale): 99
[8]; 125 g ai/ha
  AMARE phytotoxicity rating (0-100 scale): 100
[8]; 250 g ai/ha
  AMARE phytotoxicity rating (0-100 scale): 100
[9]; 125 g ai/ha
  CASOB phytotoxicity rating (0-100 scale): 70
[9]; 250 g ai/ha
  CASOB phytotoxicity rating (0-100 scale): 99
[10]; 125 g ai/ha
  ABUTH phytotoxicity rating (0-100 scale): 100
[10]; 250 g ai/ha
  ABUTH phytotoxicity rating (0-100 scale): 100
[11]; 125 g ai/ha
  CORN crop damage, phytotoxicity rating (0-100 scale): 8
[11]; 250 g ai/ha
  CORN crop damage, phytotoxicity rating (0-100 scale): 8
[12]; 125 g ai/ha
  SOY crop damage, phytotoxicity rating (0-100 scale): 50
[12]; 250 g ai/ha
  SOY crop damage, phytotoxicity rating (0-100 scale): 50
[13]; 125 g ai/ha
  RICE crop damage, phytotoxicity rating (0-100 scale): 35
[13]; 250 g ai/ha
  RICE crop damage, phytotoxicity rating (0-100 scale): 35
[14]; 125 g ai/ha
  ECHCG phytotoxicity rating (0-100 scale): 50
[14]; 250 g ai/ha
  ECHCG phytotoxicity rating (0-100 scale): 65
[15]; 125 g ai/ha
  AMBEL phytotoxicity rating (0-100 scale): 70
[15]; 250 g ai/ha
  AMBEL phytotoxicity rating (0-100 scale): 70
[16]; 125 g ai/ha
  SETVI phytotoxicity rating (0-100 scale): 60
[16]; 250 g ai/ha
  SETVI phytotoxicity rating (0-100 scale): 70
[17]; 125 g ai/ha
  IPOHE phytotoxicity rating (0-100 scale): 100
[17]; 250 g ai/ha
  IPOHE phytotoxicity rating (0-100 scale): 100
[18]; 125 g ai/ha
  SORHA phytotoxicity rating (0-100 scale): 50
[18]; 250 g ai/ha
  SORHA phytotoxicity rating (0-100 scale): 50
[19]; 125 g ai/ha
  CHEAL phytotoxicity rating (0-100 scale): 100
[19]; 250 g ai/ha
  CHEAL phytotoxicity rating (0-100 scale): 100
[20]; 125 g ai/ha
  DIGSA phytotoxicity rating (0-100 scale): 50
[20]; 250 g ai/ha
  DIGSA phytotoxicity rating (0-100 scale): 60
[21]; 125 g ai/ha
  AMARE phytotoxicity rating (0-100 scale): 100
[21]; 250 g ai/ha
  AMARE phytotoxicity rating (0-100 scale): 100
[22]; 125 g ai/ha
  CASOB phytotoxicity rating (0-100 scale): 50
[22]; 250 g ai/ha
  CASOB phytotoxicity rating (0-100 scale): 65
[23]; 125 g ai/ha
  ABUTH phytotoxicity rating (0-100 scale): 100
[23]; 250 g ai/ha
  ABUTH phytotoxicity rating (0-100 scale): 100
[24]; 125 g ai/ha
  CORN crop damage, phytotoxicity rating (0-100 scale): 0
[24]; 250 g ai/ha
  CORN crop damage, phytotoxicity rating (0-100 scale): 3
[25]; 125 g ai/ha
  SOY crop damage, phytotoxicity rating (0-100 scale): 55
[25]; 250 g ai/ha
  SOY crop damage, phytotoxicity rating (0-100 scale): 80
[26]; 125 g ai/ha
  RICE crop damage, phytotoxicity rating (0-100 scale): 0
[26]; 250 g ai/ha
  RICE crop damage, phytotoxicity rating (0-100 scale): 0

## N#Cc1c(-c2cc(Oc3ncccn3)c(Cl)cc2F)nn2c1CCCC2 [Compound 6-17]
[1]; 125 g ai/ha
  ECHCG phytotoxicity rating (0-100 scale): 60
[1]; 250 g ai/ha
  ECHCG phytotoxicity rating (0-100 scale): 98
[2]; 125 g ai/ha
  AMBEL phytotoxicity rating (0-100 scale): 35
[2]; 250 g ai/ha
  AMBEL phytotoxicity rating (0-100 scale): 25
[3]; 125 g ai/ha
  SETVI phytotoxicity rating (0-100 scale): 100
[3]; 250 g ai/ha
  SETVI phytotoxicity rating (0-100 scale): 100
[4]; 125 g ai/ha
  IPOHE phytotoxicity rating (0-100 scale): 0
[4]; 250 g ai/ha
  IPOHE phytotoxicity rating (0-100 scale): 0
[5]; 125 g ai/ha
  SORHA phytotoxicity rating (0-100 scale): 95
[5]; 250 g ai/ha
  SORHA phytotoxicity rating (0-100 scale): 98
[6]; 125 g ai/ha
  CHEAL phytotoxicity rating (0-100 scale): 100
[6]; 250 g ai/ha
  CHEAL phytotoxicity rating (0-100 scale): 100
[7]; 125 g ai/ha
  DIGSA phytotoxicity rating (0-100 scale): 99
[7]; 250 g ai/ha
  DIGSA phytotoxicity rating (0-100 scale): 100
[8]; 125 g ai/ha
  AMARE phytotoxicity rating (0-100 scale): 100
[8]; 250 g ai/ha
  AMARE phytotoxicity rating (0-100 scale): 100
[9]; 125 g ai/ha
  CASOB phytotoxicity rating (0-100 scale): 0
[9]; 250 g ai/ha
  CASOB phytotoxicity rating (0-100 scale): 25
[10]; 125 g ai/ha
  ABUTH phytotoxicity rating (0-100 scale): 85
[10]; 250 g ai/ha
  ABUTH phytotoxicity rating (0-100 scale): 100
[11]; 125 g ai/ha
  CORN crop damage, phytotoxicity rating (0-100 scale): 0
[11]; 250 g ai/ha
  CORN crop damage, phytotoxicity rating (0-100 scale): 0
[12]; 125 g ai/ha
  SOY crop damage, phytotoxicity rating (0-100 scale): 0
[12]; 250 g ai/ha
  SOY crop damage, phytotoxicity rating (0-100 scale): 0
[13]; 125 g ai/ha
  RICE crop damage, phytotoxicity rating (0-100 scale): 25
[13]; 250 g ai/ha
  RICE crop damage, phytotoxicity rating (0-100 scale): 35
[14]; 125 g ai/ha
  ECHCG phytotoxicity rating (0-100 scale): 60
[14]; 250 g ai/ha
  ECHCG phytotoxicity rating (0-100 scale): 65
[15]; 125 g ai/ha
  AMBEL phytotoxicity rating (0-100 scale): 60
[15]; 250 g ai/ha
  AMBEL phytotoxicity rating (0-100 scale): 75
[16]; 125 g ai/ha
  SETVI phytotoxicity rating (0-100 scale): 90
[16]; 250 g ai/ha
  SETVI phytotoxicity rating (0-100 scale): 90
[17]; 125 g ai/ha
  IPOHE phytotoxicity rating (0-100 scale): 100
[17]; 250 g ai/ha
  IPOHE phytotoxicity rating (0-100 scale): 100
[18]; 125 g ai/ha
  SORHA phytotoxicity rating (0-100 scale): 0
[18]; 250 g ai/ha
  SORHA phytotoxicity rating (0-100 scale): 30
[19]; 125 g ai/ha
  CHEAL phytotoxicity rating (0-100 scale): 100
[19]; 250 g ai/ha
  CHEAL phytotoxicity rating (0-100 scale): 100
[20]; 125 g ai/ha
  DIGSA phytotoxicity rating (0-100 scale): 0
[20]; 250 g ai/ha
  DIGSA phytotoxicity rating (0-100 scale): 25
[21]; 125 g ai/ha
  AMARE phytotoxicity rating (0-100 scale): 100
[21]; 250 g ai/ha
  AMARE phytotoxicity rating (0-100 scale): 100
[22]; 125 g ai/ha
  CASOB phytotoxicity rating (0-100 scale): 70
[22]; 250 g ai/ha
  CASOB phytotoxicity rating (0-100 scale): 95
[23]; 125 g ai/ha
  ABUTH phytotoxicity rating (0-100 scale): 100
[23]; 250 g ai/ha
  ABUTH phytotoxicity rating (0-100 scale): 100
[24]; 125 g ai/ha
  CORN crop damage, phytotoxicity rating (0-100 scale): 0
[24]; 250 g ai/ha
  CORN crop damage, phytotoxicity rating (0-100 scale): 5
[25]; 125 g ai/ha
  SOY crop damage, phytotoxicity rating (0-100 scale): 70
[25]; 250 g ai/ha
  SOY crop damage, phytotoxicity rating (0-100 scale): 70
[26]; 125 g ai/ha
  RICE crop damage, phytotoxicity rating (0-100 scale): 80
[26]; 250 g ai/ha
  RICE crop damage, phytotoxicity rating (0-100 scale): 80
